Results reported in patent US11485742B2, “2-azaspiro[3.4]octane derivatives as M4 agonists” (NOVARTIS AG, priority 2019, dated 2022).

Legend:
[1] = biological target: T1, human cloned CHRM2 receptor (Homo sapiens, UniProt P08172); experiment: CHRM2 Ca++ Flux Assay (M2_CHO cells, agonist mode); format: cell-based; conditions: M2 CHO cells; for EC50: agonist mode, geometric mean if tested more than once, read-out: M2 FDSS EC50; for Emax: Percent Activity (PA) measured to EC100 of Carbachol, read-out: M2 FDSS PA %
T1 construct: expressed in transfected cells; host or cells: CHO-K1 (M2_CHO)
T1 sequence (P08172 1-466): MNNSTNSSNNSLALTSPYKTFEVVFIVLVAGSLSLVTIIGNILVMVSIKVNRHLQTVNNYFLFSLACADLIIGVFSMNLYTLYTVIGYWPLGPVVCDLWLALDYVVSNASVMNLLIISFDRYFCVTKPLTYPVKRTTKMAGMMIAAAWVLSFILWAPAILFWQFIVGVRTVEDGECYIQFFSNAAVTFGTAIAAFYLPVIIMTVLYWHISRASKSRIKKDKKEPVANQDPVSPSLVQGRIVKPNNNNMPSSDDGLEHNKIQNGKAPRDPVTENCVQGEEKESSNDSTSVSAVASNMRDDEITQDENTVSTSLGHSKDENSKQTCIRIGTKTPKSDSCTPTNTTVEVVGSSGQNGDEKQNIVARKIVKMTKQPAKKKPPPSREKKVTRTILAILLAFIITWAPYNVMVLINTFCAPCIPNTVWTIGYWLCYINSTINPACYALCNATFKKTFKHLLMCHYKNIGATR
Outline: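 Agonist activity was expressed as percent of the carbachol EC100 response, fitted by four-parameter regression on triplicate wells, with geometric means across repeat runs. Calcium traces over 3 minutes came from dye-loaded M2_CHO cells (12K/well) pre-incubated 60 min in Ca/Mg-free HBSS with 20 mM HEPES, 2.5 mM probenecid and 20 μM ATP.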

[2] = biological target: T2, Cloned human M1 receptor (CHRM1) (Homo sapiens, UniProt P11229); experiment: CHRM1 Ca++ Flux Assay (HEK293 M1 cells, agonist mode); format: cell-based; conditions: for Emax: Percent Activity (PA), read-out: M1 FDSS PA %; for EC50: geometric mean if tested more than once, read-out: M1 FDSS EC50
T2 construct: expressed in transfected cells; host or cells: HEK293
T2 sequence (P11229 1-460): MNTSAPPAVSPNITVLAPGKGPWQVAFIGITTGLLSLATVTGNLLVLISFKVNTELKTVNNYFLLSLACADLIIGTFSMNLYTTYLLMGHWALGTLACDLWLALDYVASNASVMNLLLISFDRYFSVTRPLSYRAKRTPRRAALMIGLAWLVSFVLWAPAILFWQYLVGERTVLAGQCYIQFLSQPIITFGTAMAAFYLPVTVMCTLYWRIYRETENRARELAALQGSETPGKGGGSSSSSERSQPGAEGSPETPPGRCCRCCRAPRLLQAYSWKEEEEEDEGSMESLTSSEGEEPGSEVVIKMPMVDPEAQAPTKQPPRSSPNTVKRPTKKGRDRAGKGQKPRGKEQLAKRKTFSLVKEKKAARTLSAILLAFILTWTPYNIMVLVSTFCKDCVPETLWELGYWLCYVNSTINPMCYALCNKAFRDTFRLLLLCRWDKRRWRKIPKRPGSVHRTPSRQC
Outline: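 In agonist mode, compound-induced intracellular Ca++ mobilization was recorded for 3 min by fluorescent imager. The cells were HEK293 stably expressing cloned human CHRM1, in Ca/Mg-free HBSS with 20 mM HEPES. Triplicate 11-point dose-responses were fitted by four-parameter regression and normalized to the carbachol EC100 response.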

EC50 [1] [nM] | Emax [1] [%] | Emax [2] [%] | EC50 [2] [nM] | Structure (SMILES)
536 | 32 | 92 | 210 | Fc1ccc(OC2COC2)c(C2CCN([C@@H]3COC4(C3)CN(c3nnco3)C4)CC2)c1 [Example 1A, (S)-7-(4-(5-fluoro-2-(oxetan-3-yloxy)phenyl)piperidin-1-yl)-2-(1,3,4-oxadiazol-2-yl)-5-oxa-2-azaspiro[3.4]octane]
531 | 32 | 54 | 980 | Fc1ccc(OC[C@H]2CCOC2)c(C2CCN([C@@H]3COC4(C3)CN(c3nnco3)C4)CC2)c1 [Example 1I, (S)-7-(4-(5-fluoro-2-(((S)-tetrahydrofuran-3-yl)methoxy)phenyl)piperidin-1-yl)-2-(1,3,4-oxadiazol-2-yl)-5-oxa-2-azaspiro[3.4]octane]
874 | 35 | 73 | 4090 | Fc1ccc(OCC2CCOCC2)c(C2CCN([C@@H]3COC4(C3)CN(c3nnco3)C4)CC2)c1 [Example 1J, (S)-7-(4-(5-fluoro-2-((tetrahydro-2H-pyran-4-yl)methoxy)phenyl)piperidin-1-yl)-2-(1,3,4-oxadiazol-2-yl)-5-oxa-2-azaspiro[3.4]octane]
> 25000 | 0 | 75 | 1320 | COCCOc1ccc(F)cc1C1CCN([C@@H]2COC3(C2)CN(c2nnco2)C3)CC1 [Example 1L, (S)-7-(4-(5-fluoro-2-(2-methoxyethoxy)phenyl)piperidin-1-yl)-2-(1,3,4-oxadiazol-2-yl)-5-oxa-2-azaspiro[3.4]octane]
752 | 23 | 89 | 1370 | Fc1ccc(OC2COCOC2)c(C2CCN([C@@H]3COC4(C3)CN(c3nnco3)C4)CC2)c1 [Example 1M, (S)-7-(4-(2-((1,3-dioxan-5-yl)oxy)-5-fluorophenyl)piperidin-1-yl)-2-(1,3,4-oxadiazol-2-yl)-5-oxa-2-azaspiro[3.4]octane]
> 25000 | 0 | 82 | 376 | CC(C)(O)CCOc1ccc(F)cc1C1CCN([C@@H]2COC3(C2)CN(c2nnco2)C3)CC1 [Example 1N, (S)-4-(2-(1-(2-(1,3,4-oxadiazol-2-yl)-5-oxa-2-azaspiro[3.4]octan-7-yl)piperidin-4-yl)-4-fluorophenoxy)-2-methylbutan-2-ol]
611 | 36 | 69 | 1350 | c1ccc(C2CCN([C@@H]3COC4(C3)CN(c3nnco3)C4)CC2)c(O[C@@H]2CCOC2)c1 [Example 1O, (S)-2-(1,3,4-oxadiazol-2-yl)-7-(4-(2-(((R)-tetrahydrofuran-3-yl)oxy)phenyl)piperidin-1-yl)-5-oxa-2-azaspiro[3.4]octane]
1090 | 51 | 76 | 439 | c1ccc(C2CCN([C@@H]3COC4(C3)CN(c3nnco3)C4)CC2)c(OC2COC2)c1 [Example 1P, (S)-2-(1,3,4-oxadiazol-2-yl)-7-(4-(2-(oxetan-3-yloxy)phenyl)piperidin-1-yl)-5-oxa-2-azaspiro[3.4]octane]
3810 | 16 | 81 | 678 | COc1ccccc1C1CCN([C@@H]2COC3(C2)CN(c2nnco2)C3)CC1 [Example 1Q, (S)-7-(4-(2-methoxyphenyl)piperidin-1-yl)-2-(1,3,4-oxadiazol-2-yl)-5-oxa-2-azaspiro[3.4]octane]
359 | 32 | 76 | 670 | Fc1cc(O[C@@H]2CCOC2)c(C2CCN([C@@H]3COC4(C3)CN(c3nnco3)C4)CC2)cc1F [Example 1R, (S)-7-(4-(4,5-difluoro-2-(((R)-tetrahydrofuran-3-yl)oxy)phenyl)piperidin-1-yl)-2-(1,3,4-oxadiazol-2-yl)-5-oxa-2-azaspiro[3.4]octane]
656 | 13 | 71 | 634 | COc1cc(F)ccc1C1CCN([C@@H]2COC3(C2)CN(c2nnco2)C3)CC1 [Example 1S, (S)-7-(4-(4-fluoro-2-methoxyphenyl)piperidin-1-yl)-2-(1,3,4-oxadiazol-2-yl)-5-oxa-2-azaspiro[3.4]octane]
> 25000 | 0 | 74 | 640 | CC(C)(O)CCOc1cc(F)ccc1C1CCN([C@@H]2COC3(C2)CN(c2nnco2)C3)CC1 [Example 1T, (S)-4-(2-(1-(2-(1,3,4-oxadiazol-2-yl)-5-oxa-2-azaspiro[3.4]octan-7-yl)piperidin-4-yl)-5-fluorophenoxy)-2-methylbutan-2-ol]
> 25000 | 0 | 75 | 961 | CC(C)(O)COc1ccc(F)cc1C1CCN([C@@H]2COC3(C2)CN(c2nnco2)C3)CC1 [Example 1U, (S)-1-(2-(1-(2-(1,3,4-oxadiazol-2-yl)-5-oxa-2-azaspiro[3.4]octan-7-yl)piperidin-4-yl)-4-fluorophenoxy)-2-methylpropan-2-ol]
598 | 35 | 76 | 663 | COc1ccc(F)cc1C1CCN([C@@H]2COC3(C2)CN(c2nnco2)C3)CC1 [Example 1V, (S)-7-(4-(5-fluoro-2-methoxyphenyl)piperidin-1-yl)-2-(1,3,4-oxadiazol-2-yl)-5-oxa-2-azaspiro[3.4]octane]
527 | 68 | 94 | 335 | c1ccc(C2CCN([C@@H]3COC4(C3)CN(c3nnco3)C4)CC2)c(-c2cncnc2)c1 [Example 1W, (S)-2-(1,3,4-oxadiazol-2-yl)-7-(4-(2-(pyrimidin-5-yl)phenyl)piperidin-1-yl)-5-oxa-2-azaspiro[3.4]octane]
2480 | 25 | 99 | 1230 | c1ccc(C2CCN([C@@H]3COC4(C3)CN(c3nnco3)C4)CC2)c(-c2ncco2)c1 [Example 1X, (S)-2-(1,3,4-oxadiazol-2-yl)-7-(4-(2-(oxazol-2-yl)phenyl)piperidin-1-yl)-5-oxa-2-azaspiro[3.4]octane]
874 | 35 | 107 | 579 | Cc1nnc(-c2ccccc2C2CCN([C@@H]3COC4(C3)CN(c3nnco3)C4)CC2)o1 [Example 1Y, (S)-7-(4-(2-(5-methyl-1,3,4-oxadiazol-2-yl)phenyl)piperidin-1-yl)-2-(1,3,4-oxadiazol-2-yl)-5-oxa-2-azaspiro[3.4]octane]
520 | 46 | 103 | 553 | Fc1ccc(OCC2COC2)c(C2CCN([C@@H]3COC4(C3)CN(c3nncs3)C4)CC2)c1 [Example 2A, (S)-7-(4-(5-fluoro-2-(oxetan-3-ylmethoxy)phenyl)piperidin-1-yl)-2-(1,3,4-thiadiazol-2-yl)-5-oxa-2-azaspiro[3.4]octane]
416 | 35 | 91 | 1140 | CC1(COc2ccc(F)cc2C2CCN([C@@H]3COC4(C3)CN(c3nncs3)C4)CC2)COC1 [Example 2B, (S)-7-(4-(5-fluoro-2-((3-methyloxetan-3-yl)methoxy)phenyl)piperidin-1-yl)-2-(1,3,4-thiadiazol-2-yl)-5-oxa-2-azaspiro[3.4]octane]

Structure (SMILES) | EC50 [1] [nM] | Emax [1] [%] | Emax [2] [%] | EC50 [2] [nM]
COC(C)(C)CCOc1ccc(F)cc1C1CCN([C@@H]2COC3(C2)CN(c2nnco2)C3)CC1 [Example 1K, (S)-7-(4-(5-fluoro-2-(3-methoxy-3-methylbutoxy)phenyl)piperidin-1-yl)-2-(1,3,4-oxadiazol-2-yl)-5-oxa-2-azaspiro[3.4]octane] | > 25000 | 0 | 58 | 1590
